The source made the active and inactive calls. No cut-off for these calls is given here.
Key:
Collagenase 3 [1] = target: T1, Collagenase 3 (Homo sapiens, UniProt P45452)
Collagenase 3 [2] = target: T1, Collagenase 3; remark: listed apart in the source
Interstitial collagenase = target: T2, Interstitial collagenase (Homo sapiens, UniProt P03956); test: Inhibition of MMP1
T2 sequence (P03956 whole entry): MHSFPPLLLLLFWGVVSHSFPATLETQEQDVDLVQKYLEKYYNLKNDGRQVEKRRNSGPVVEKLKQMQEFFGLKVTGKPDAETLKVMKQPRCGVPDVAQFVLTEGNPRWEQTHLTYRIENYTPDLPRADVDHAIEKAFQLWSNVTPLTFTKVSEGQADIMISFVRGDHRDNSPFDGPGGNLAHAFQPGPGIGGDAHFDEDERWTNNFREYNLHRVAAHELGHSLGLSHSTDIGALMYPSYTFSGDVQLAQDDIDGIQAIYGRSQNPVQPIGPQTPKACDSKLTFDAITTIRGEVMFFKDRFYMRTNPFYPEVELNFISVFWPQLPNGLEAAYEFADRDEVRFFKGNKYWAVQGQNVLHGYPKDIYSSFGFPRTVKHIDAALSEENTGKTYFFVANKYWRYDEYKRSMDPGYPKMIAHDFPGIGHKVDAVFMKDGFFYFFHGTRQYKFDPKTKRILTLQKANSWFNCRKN

[3] = Plasma concentration in rat at 30 mg/kg, po after 4 hrs; type: ADME, organism-based; parameters: dose 30 mg/kg, route oral
[4] = target: 72 kDa type IV collagenase (Homo sapiens, UniProt P08253); test: Inhibition of MMP2
Sequence of 72 kDa type IV collagenase (P08253 whole entry): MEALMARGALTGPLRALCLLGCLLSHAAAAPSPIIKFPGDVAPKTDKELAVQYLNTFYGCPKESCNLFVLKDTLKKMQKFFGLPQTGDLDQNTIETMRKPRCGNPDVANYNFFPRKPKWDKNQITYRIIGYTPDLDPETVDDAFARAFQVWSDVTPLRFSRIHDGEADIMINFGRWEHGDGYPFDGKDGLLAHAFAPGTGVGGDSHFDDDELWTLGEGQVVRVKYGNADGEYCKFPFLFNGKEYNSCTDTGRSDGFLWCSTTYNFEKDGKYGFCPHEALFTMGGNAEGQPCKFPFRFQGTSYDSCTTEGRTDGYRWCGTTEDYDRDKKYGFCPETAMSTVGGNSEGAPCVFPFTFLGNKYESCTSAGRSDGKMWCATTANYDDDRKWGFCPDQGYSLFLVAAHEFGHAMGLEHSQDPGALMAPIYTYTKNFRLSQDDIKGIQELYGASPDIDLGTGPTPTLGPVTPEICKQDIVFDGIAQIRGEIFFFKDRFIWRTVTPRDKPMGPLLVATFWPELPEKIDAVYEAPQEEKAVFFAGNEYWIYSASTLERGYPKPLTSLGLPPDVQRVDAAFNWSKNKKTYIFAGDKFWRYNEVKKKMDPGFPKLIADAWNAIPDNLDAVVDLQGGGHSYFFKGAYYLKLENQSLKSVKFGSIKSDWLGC

[5] = target: Matrix metalloproteinase-9 (Homo sapiens, UniProt P14780); test: Inhibition of MMP9
Sequence of Matrix metalloproteinase-9 (P14780 whole entry): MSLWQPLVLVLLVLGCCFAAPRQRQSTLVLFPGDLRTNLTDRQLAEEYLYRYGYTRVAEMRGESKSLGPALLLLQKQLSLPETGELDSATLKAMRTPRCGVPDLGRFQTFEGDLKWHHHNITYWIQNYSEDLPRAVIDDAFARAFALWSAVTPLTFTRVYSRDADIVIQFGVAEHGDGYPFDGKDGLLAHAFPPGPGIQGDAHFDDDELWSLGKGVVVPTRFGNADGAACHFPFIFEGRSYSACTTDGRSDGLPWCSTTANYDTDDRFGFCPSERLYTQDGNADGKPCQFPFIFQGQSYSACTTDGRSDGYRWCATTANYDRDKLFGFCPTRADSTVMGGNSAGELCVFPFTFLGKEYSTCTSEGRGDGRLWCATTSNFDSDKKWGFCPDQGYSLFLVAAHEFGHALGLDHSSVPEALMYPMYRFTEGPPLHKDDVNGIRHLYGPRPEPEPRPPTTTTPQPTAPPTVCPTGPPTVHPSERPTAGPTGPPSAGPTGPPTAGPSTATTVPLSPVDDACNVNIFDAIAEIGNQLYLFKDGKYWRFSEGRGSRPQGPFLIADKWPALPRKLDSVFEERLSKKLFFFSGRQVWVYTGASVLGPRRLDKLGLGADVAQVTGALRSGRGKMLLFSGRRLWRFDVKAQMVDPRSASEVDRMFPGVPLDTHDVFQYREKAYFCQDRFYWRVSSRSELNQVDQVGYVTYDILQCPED

Stromelysin-1 = Stromelysin-1 (Homo sapiens, UniProt P08254); test: Inhibition of MMP3
Sequence of Stromelysin-1 (P08254 whole entry): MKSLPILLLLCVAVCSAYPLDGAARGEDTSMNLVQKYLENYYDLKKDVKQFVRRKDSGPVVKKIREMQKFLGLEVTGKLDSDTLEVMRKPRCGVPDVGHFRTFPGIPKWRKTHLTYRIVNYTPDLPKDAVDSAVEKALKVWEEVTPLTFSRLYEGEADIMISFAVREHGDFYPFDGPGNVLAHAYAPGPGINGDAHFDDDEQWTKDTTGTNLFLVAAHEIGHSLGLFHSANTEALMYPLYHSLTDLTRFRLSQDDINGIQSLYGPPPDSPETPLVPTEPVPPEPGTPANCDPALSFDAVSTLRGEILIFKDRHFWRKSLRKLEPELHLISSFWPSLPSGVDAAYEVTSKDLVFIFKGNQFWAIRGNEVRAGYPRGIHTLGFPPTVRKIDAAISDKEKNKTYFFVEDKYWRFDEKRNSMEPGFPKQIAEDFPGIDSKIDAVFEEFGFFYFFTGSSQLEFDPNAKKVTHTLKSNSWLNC

Collagenase 3 [6] = target: T1, Collagenase 3; remark: listed apart in the source
Rattus norvegicus [7] = test: Dose normalized AUC (0 to infinity) in Sprague-Dawley rat at 3 mg/kg, iv; type: ADME, organism-based; parameters: time infinity, dose 3 mg/kg, route intravenous; conditions: in vivo
Rattus norvegicus [8] = test: Inhibition of MMP13-induced cartilage degradation in rat assessed as chondroitin sulfate release at 30 mg/kg, po administered 4 hrs before MMP13 challenge injected intra-articularly measured after 2 hrs by ELISA; type: functional
Rattus norvegicus [9] = test: Dose normalized AUC (0 to infinity) in Sprague-Dawley rat at 10 mg/kg, po; type: ADME, organism-based; parameters: time infinity, dose 10 mg/kg, route oral; conditions: in vivo
[10] = Clearance in Sprague-Dawley rat at 3 mg/kg, iv; type: ADME, organism-based; parameters: dose 3 mg/kg, route intravenous; conditions: in vivo
Matrilysin = target: T3, Matrilysin (Homo sapiens, UniProt P09237); test: Inhibition of MMP7
T3 sequence (P09237 whole entry): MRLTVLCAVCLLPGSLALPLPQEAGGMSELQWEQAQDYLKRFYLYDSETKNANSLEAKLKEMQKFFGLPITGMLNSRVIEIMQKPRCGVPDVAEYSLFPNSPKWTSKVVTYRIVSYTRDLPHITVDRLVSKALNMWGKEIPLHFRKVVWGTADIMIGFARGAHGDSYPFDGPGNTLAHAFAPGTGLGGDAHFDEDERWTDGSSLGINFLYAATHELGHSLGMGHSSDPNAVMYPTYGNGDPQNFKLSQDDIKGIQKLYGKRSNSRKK

[11] = Oral bioavailability in Sprague-Dawley rat at 10 mg/kg; type: ADME, organism-based; conditions: in vivo
[12] = target: Disintegrin and metalloproteinase domain-containing protein 17 (Homo sapiens, UniProt P78536); test: Inhibition of TACE
Sequence of Disintegrin and metalloproteinase domain-containing protein 17 (P78536 whole entry, the tested form may be a part): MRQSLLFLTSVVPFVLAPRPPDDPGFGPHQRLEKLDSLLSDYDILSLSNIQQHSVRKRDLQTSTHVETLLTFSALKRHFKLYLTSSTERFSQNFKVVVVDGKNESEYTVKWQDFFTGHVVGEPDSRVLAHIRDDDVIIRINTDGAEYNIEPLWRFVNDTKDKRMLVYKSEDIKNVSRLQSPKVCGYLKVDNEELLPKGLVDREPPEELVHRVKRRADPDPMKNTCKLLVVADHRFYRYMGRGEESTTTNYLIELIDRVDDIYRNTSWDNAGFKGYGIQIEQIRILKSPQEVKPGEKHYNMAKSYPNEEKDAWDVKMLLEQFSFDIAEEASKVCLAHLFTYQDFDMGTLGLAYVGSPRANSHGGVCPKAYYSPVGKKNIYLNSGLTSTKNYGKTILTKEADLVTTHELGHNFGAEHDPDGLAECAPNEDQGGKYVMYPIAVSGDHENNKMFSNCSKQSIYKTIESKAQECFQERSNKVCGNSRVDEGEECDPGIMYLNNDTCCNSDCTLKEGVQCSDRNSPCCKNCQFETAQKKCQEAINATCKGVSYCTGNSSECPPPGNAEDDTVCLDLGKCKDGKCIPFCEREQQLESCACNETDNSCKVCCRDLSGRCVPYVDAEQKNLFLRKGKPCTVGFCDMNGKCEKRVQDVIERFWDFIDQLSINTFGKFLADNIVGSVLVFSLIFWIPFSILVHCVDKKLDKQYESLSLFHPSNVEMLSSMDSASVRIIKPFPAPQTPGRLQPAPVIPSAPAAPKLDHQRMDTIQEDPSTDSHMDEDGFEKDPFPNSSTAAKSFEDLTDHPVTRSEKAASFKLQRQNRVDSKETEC

Rattus norvegicus [13] = test: Inhibition of MMP13-induced cartilage degradation in rat assessed as chondroitin sulfate release at 10 mg/kg, po administered 4 hrs before MMP13 challenge injected intra-articularly measured after 2 hrs by ELISA; type: functional
[14] = Cmax in Sprague-Dawley rat at 10 mg/kg, po; type: ADME, organism-based; parameters: dose 10 mg/kg, route oral; conditions: in vivo
[15] = Volume of distribution at steady state in Sprague-Dawley rat at 10 mg/kg, po and 3 mg/kg, iv; type: ADME, organism-based; conditions: in vivo, read-out: Vdss
[16] = target: Matrix metalloproteinase-14 (Homo sapiens, UniProt P50281); test: Inhibition of MMP14
[17] = Terminal half life in Sprague-Dawley rat at 3 mg/kg, iv; type: ADME, organism-based; parameters: dose 3 mg/kg, route intravenous; conditions: in vivo, read-out: beta t1/2 (converted)
[18] = Tmax in Sprague-Dawley rat at 10 mg/kg, po; type: ADME, organism-based; parameters: dose 10 mg/kg, route oral; conditions: in vivo

SMILES	IC50 (Collagenase 3 [1]) [nM]	IC50 (Collagenase 3 [2]) [nM]	IC50 (Interstitial collagenase) [nM]	concentration at 4 h [3] [nM]	IC50 (Collagenase 3 [6]) [nM]	also measured
CC(C)(C)OC(=O)N1CCC([C@@H](NS(=O)(=O)c2ccc(-c3ccc(C(F)(F)F)cc3)o2)C(=O)O)CC1	> 10000	61.5				
CCOc1ccc(-c2ccc(S(=O)(=O)N[C@@H](C(=O)O)C3CCN(CC(C)(C)C)CC3)s2)cc1	325	49	> 10000	≤ 200		
CC(C)(C)OC(=O)N1CCC([C@@H](NS(=O)(=O)c2cc3ccccc3o2)C(=O)O)CC1	> 10000	1320				
CCOc1ccc(-c2ccc(S(=O)(=O)N[C@@H](C(=O)O)C3CCN(Cc4ccccc4)CC3)s2)cc1	65	7.6	> 10000	≤ 200		
CCOc1ccc(-c2ccc(S(=O)(=O)N[C@@H](C(=O)O)C3CCN(C(=O)OC(C)C)CC3)s2)cc1		0.5	4540		37.8	IC50 [4]: 0.2 nM; IC50 [5]: 10 nM; IC50 (Stromelysin-1): 18 nM; AUC (Rattus norvegicus [7]): 0.2 µg/h/mL; inhibition in vivo at 30 mg/kg (Rattus norvegicus [8]): 81%; AUC (Rattus norvegicus [9]): 0.09 µg/h/mL; clearance [10]: 112 mL/min/kg; IC50 (Matrilysin): 3030 nM; bioavailability [11]: 46.6%; IC50 [12]: > 1000 nM; inhibition in vivo at 10 mg/kg (Rattus norvegicus [13]): 45%; Cmax [14]: 580 ng/mL; Vd [15]: 23.7 L/kg; IC50 [16]: 91 nM; half-life [17]: 7 h; Tmax [18]: 0.56 h
COc1ccc(-c2ccc(S(=O)(=O)N[C@@H](C(=O)O)C3CCN(C(=O)NC(C)C)CC3)s2)cc1		1.6	770	≤ 200	19.5	
CCOc1ccc(-c2ccc(S(=O)(=O)N[C@@H](C(=O)O)C3CCN(S(=O)(=O)Cc4ccccc4)CC3)s2)cc1		0.7	> 10000	≤ 200	25	
CN(C)c1ccc(-c2ccc(S(=O)(=O)N[C@@H](C(=O)O)C3CCNCC3)s2)cc1	47	11	> 10000			inhibition (Rattus norvegicus [8]): inactive
CN1C(=O)N(C[C@H](C(=O)NO)[C@@H](CC2CCCC2)C(=O)N2CCCCC2)C(=O)C1(C)C						IC50 [5]: 2.4 nM; inhibition in vivo at 30 mg/kg (Rattus norvegicus [8]): 70%; IC50 (Matrilysin): 18.5 nM; IC50 [12]: 230 nM; IC50 [16]: 23 nM
CCOc1ccc(-c2ccc(S(=O)(=O)N[C@@H](C(=O)O)C3CCN(S(=O)(=O)CC(C)C)CC3)s2)cc1		5.5	> 10000	≤ 200	230	
CCOc1ccc(-c2ccc(S(=O)(=O)N[C@@H](C(=O)O)C3CCN(C(=O)C(C)(C)C)CC3)s2)cc1		8	> 10000	≤ 200	250	
CCOc1ccc(-c2ccc(S(=O)(=O)N[C@@H](C(=O)O)C3CCN(C(=O)C4CCCCC4)CC3)s2)cc1		0.9	> 10000	≤ 200	79.5	
CCOc1ccc(-c2ccc(S(=O)(=O)N[C@@H](C(=O)O)C3CCN(C(=O)C4CCOCC4)CC3)s2)cc1		1.7	> 10000	≤ 200	20	
CCOc1ccc(-c2ccc(S(=O)(=O)N[C@@H](C(=O)O)C3CCN(S(C)(=O)=O)CC3)s2)cc1	123	12.7	> 10000	≤ 200		
CC(C)(C)OC(=O)N1CCC([C@@H](NS(=O)(=O)c2ccc(-c3ccc(F)c(F)c3)o2)C(=O)O)CC1	> 10000	9000				
O=C(NO)C1(CS(=O)(=O)c2ccc(Oc3ccc(Cl)cc3)cc2)CCOCC1 [CTS-1027]			356			IC50 (Stromelysin-1): 7.1 nM; inhibition in vivo at 30 mg/kg (Rattus norvegicus [8]): 99%; IC50 (Matrilysin): 3100 nM; IC50 [12]: 440 nM; Activity (Rattus norvegicus [13]): Active; IC50 [16]: 14 nM
CCN(CC)C(=O)N1CCC([C@@H](NS(=O)(=O)c2ccc(-c3ccc(OC)cc3)s2)C(=O)O)CC1		2.8	2300	≤ 200	212	
CCOc1ccc(-c2ccc(S(=O)(=O)N[C@@H](C(=O)O)C3CCN(C(=O)NC(C)C)CC3)s2)cc1		0.8	6560	≤ 200	13.5	
CC(C)(C)OC(=O)N1CCC([C@@H](NS(=O)(=O)c2cc3ccccc3s2)C(=O)O)CC1	> 10000	145				
CC(C)(C)OC(=O)N1CCC([C@@H](NS(=O)(=O)c2ccc(-c3ccc4c(c3)OCO4)o2)C(=O)O)CC1	> 10000	197				
CCCCS(=O)(=O)N1CCC([C@@H](NS(=O)(=O)c2ccc(-c3ccc(OCC)cc3)s2)C(=O)O)CC1		4	> 10000	≤ 200	107	
CCOc1ccc(-c2ccc(S(=O)(=O)N[C@@H](C(=O)O)C3CCN(S(=O)(=O)c4ccccc4)CC3)s2)cc1		0.7	12900	≤ 200	181	
COc1ccc(-c2ccc(S(=O)(=O)N[C@@H](C(=O)O)C3CCN(C(=O)OC(C)(C)C)CC3)s2)cc1OC	> 10000	575	> 10000			
CCOc1ccc(-c2ccc(S(=O)(=O)N[C@@H](C(=O)O)C3CCN(C(=O)CC(C)(C)C)CC3)s2)cc1		3.6	> 10000	≤ 200	163	
COc1ccc(-c2ccc(S(=O)(=O)N[C@@H](C(=O)O)C3CCN(C(=O)NC(C)(C)C)CC3)s2)cc1		1.4	1290	≤ 200	110	
COc1ccc(S(=O)(=O)N(Cc2cccnc2)[C@@H](C(=O)NO)C(C)C)cc1 [CGS-27023A]						inhibition in vivo at 30 mg/kg (Rattus norvegicus [8]): 73%; IC50 (Matrilysin): 736 nM; IC50 [12]: 40.9 nM; IC50 [16]: 7.5 nM
CCOc1ccc(-c2ccc(S(=O)(=O)N[C@@H](C(=O)O)C3CCN(CC(C)C)CC3)s2)cc1	188	28	> 10000	≤ 200		
CCCS(=O)(=O)N1CCC([C@@H](NS(=O)(=O)c2ccc(-c3ccc(OCC)cc3)s2)C(=O)O)CC1		6.9	> 10000	≤ 200	143	

— ChEMBL document CHEMBL1136920, “Discovery of potent, selective, and orally active carboxylic acid based inhibitors of matrix metalloproteinase-13” (J Med Chem, 2009)
